Assay results published in paper PMC5827777, “Synthesis and biological evaluation of RGD and isoDGR peptidomimetic-α-amanitin conjugates for tumor-targeting” (Beilstein Journal of Organic Chemistry, 2018).

Key:
αVβ5 receptor [1] = test: Inhibition of biotinylated vitronectin binding to αVβ5 receptor; conditions: ratio of IC50 values of Table 1
[2] = target: T1, Recombinant human integrin αVβ3 (Homo sapiens, UniProt P05106+P06756); parameters: method as in PMID 22517378, PMID 23424096; conditions: free ligands, Table 1; mean ± SD of triplicate determinations; read-out: IC50 αVβ3, inhibition of biotinylated vitronectin binding; cited from earlier work
T1 construct: purchased R&D Systems, Minneapolis, MN, USA
T1 sequence (P06756 31-992 limits assumed): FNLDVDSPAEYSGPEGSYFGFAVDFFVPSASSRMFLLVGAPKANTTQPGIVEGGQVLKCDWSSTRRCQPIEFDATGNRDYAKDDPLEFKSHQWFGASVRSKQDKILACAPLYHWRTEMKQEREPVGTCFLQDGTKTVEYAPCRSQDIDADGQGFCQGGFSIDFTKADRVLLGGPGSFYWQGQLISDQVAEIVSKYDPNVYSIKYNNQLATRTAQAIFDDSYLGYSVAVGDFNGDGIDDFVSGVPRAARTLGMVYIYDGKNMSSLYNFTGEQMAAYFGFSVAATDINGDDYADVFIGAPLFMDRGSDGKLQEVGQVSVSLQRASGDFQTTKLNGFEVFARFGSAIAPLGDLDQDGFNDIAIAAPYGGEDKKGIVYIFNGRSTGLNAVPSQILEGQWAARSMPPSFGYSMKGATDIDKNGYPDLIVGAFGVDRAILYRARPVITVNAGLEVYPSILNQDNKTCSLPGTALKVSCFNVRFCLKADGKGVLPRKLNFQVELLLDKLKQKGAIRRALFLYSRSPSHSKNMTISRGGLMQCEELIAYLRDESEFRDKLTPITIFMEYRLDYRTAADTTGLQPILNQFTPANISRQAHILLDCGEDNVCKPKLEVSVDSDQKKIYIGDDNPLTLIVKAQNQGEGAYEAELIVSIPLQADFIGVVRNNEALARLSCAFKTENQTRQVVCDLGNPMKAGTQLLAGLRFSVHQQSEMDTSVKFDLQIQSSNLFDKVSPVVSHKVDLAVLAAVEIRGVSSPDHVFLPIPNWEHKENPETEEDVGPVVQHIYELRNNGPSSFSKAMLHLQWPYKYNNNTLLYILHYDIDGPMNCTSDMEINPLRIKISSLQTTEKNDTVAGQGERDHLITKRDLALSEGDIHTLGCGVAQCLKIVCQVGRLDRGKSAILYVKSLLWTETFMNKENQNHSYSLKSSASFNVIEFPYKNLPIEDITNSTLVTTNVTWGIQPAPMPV
T1 sequence (P05106 27-718 limits assumed): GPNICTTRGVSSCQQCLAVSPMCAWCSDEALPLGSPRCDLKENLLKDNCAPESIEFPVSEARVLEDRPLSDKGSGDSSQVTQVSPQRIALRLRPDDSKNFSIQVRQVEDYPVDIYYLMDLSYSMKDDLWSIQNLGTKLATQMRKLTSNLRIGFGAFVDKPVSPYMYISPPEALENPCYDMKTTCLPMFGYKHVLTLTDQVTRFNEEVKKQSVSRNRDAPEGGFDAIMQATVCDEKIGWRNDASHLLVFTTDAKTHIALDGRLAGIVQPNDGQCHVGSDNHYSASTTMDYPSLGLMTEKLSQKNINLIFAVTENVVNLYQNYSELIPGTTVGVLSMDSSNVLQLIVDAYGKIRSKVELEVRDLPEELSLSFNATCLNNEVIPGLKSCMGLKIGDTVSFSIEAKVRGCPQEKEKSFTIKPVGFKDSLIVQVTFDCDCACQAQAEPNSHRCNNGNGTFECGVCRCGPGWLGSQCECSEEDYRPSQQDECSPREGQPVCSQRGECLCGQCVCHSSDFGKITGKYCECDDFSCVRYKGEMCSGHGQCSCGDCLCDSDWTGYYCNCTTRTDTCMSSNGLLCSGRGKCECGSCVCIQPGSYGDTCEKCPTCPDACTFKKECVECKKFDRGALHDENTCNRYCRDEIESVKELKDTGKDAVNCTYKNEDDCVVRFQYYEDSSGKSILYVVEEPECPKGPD

αVβ5 receptor [3] = target: αVβ5 receptor; parameters: method as in PMID 22517378, PMID 23424096; conditions: free ligands, Table 1; mean ± SD of triplicate determinations; read-out: IC50 αVβ5, inhibition of biotinylated vitronectin binding; cited from earlier work

## N=C(N)NCCC[C@@H]1NC(=O)CNC(=O)C[C@@H](C(=O)O)NC(=O)C[C@H]2NC(=O)[C@H](CNC1=O)N(Cc1ccccc1)C2=O [Ligand 3, cyclo[DKP-isoDGR]]
αVβ5 receptor [1]
  selectivity for αVβ3 in comparison with integrin αVβ5: 33–34 times
[2]
  IC50: 0.0092 ± 0.0011 µM
αVβ5 receptor [3]
  IC50: 0.312 ± 0.021 µM
